The subject of assay [1] is C. elegans model of ATD (sGFP::ATZ). As to the kind of experiment: Quantification of ATZ accumulation in C. elegans model of ATD (Z worm). The class given is in vivo. Conditions: GB administered to ATD C. elegans model. The method, then: The C. elegans strain VK1882 (vkls1882 [nhx-2p::sGFP::ATZ; myo-2p::mCherry) was routinely cultured at 20° C. on nematode growth medium plates seeded with E. coli strain OP50. Quantitative analysis of ATZ accumulation was carried out by detection of fluorescence using the Thermofisher CellInsight CX-7 high content imager as previously described. L4 stage animals were placed into wells of 384-well plates (30 per well) containing G2 analogs or an equivalent volume of DMSO. Following incubation at 20° C. for 24 hours, sodium azide was added to a final concentration of […] to anesthetize the animals and then each well was imaged on the CX-7 high content imager for quantification.

In assay [2] the test system is misfolded ATZ. The assay is described as follows: Autophagic degradation of ATZ in mammalian cell line model of ATD. As to conditions: effect blocked when autophagy gene ATG14 was deleted. It is filed as cell-based.
Assay [3] deals with α1-antitrypsin Z variant (ATZ). The assay is described as follows: Steady state levels of ATZ in HTO/Z cell line (immunoblot); activity of G2 analogs. The class given is cell-based, human. Conditions: for Activity: G2 and G2 analogs, positive activity if shown to have any activity, not quantified. The method, then:
For experiments with G2 analogs, Tet-off inducible cell lines were cultured in absence of doxycycline for at least 12 days to ensure expression of […] or its variants. The cells were then sub-cultured into separate monolayers in fresh complete growth medium and incubated for 48 hours in the absence or presence of G2 analog. […] All compounds available commercially were purchased except for G2-22, which was synthesized with routine chemistry.
Cells were lysed in NP40 buffer and then separated into insoluble and soluble fractions according to a previously established technique. Samples were subjected to immunoblot analysis for AT and GAPDH. For immmunoblot analysis to detect AT or GAPDH, cells were lysed in 50 mM Tris-HCl, 150 mM NaCl, 1% NP-40, pH 8.0. Protein concentrations were determined by BCA protein assay (Pierce Biotechnology, Rockford, IL). […] The membranes were blocked in 5% milk and then incubated overnight at 4° C. with primary antibody for AT (1:1000, Diasorin), LC3 (1:2000, Sigma), p62 (1:1000, Cell signaling, Danvers, MA), ATG5 (1:1000, Cell signaling), mTOR substrate sampler (1:1000 for all antibodies, Cell signaling). Donkey anti-goat Ig (Jackson Labs, Bar Harbor, ME), goat anti-rabbit lg (1:50,000), or goat anti-mouse Ig (1:50,000) were used as secondary antibodies in TBST at RT, 1 hour. Blots were visualized with ECL or West Femto from Pierce. Membranes were re-probed with GAPDH (1:5000, Sigma) as loading control. Insoluble samples were stained with Gel Code Blue as loading control.

Assay [4] has as its system α1-antitrypsin Z variant (ATZ). The description is as above. Conditions: 24 hr treatment, 0.5 and 2.5 μM, FIG. 22C. It is filed as cell-based, human.
For assay [5], the system named is HD-MSNs. The assay is described as follows: Autophagy measurement in HD-MSNs (p62 immunoblot, CYTO-ID green). It is filed as cell-based, human. Conditions: 0.5 μM vs DMSO. As to the method:
To test whether the differentially expressed genetic pathways between pre-HD-MSNs and HD-MSNs would be reflected at the cellular level, whether the autophagy activity would be different between pre-HD- and HD-MSNs was assessed. CYTO-ID assay, a fluorescence-based live-cell assay for accumulated autophagic vacuoles was performed as well as immunoblot for p62/SQSTM1 expression, a marker used to monitor autophagic activity due to its binding to LC3 and degradation by autophagy.
(§1) Adult dermal fibroblasts from symptomatic HD patients (Coriell NINDS and NIGMS Repositories: ND33947, ND30013, GM02173, GM04230, GM04198, GM02147), presymptomatic HD patients (GM04717, GM04861, GM04855, GM04831, GM04857, GM04829), and healthy controls (GM02171) were acquired from the Coriell Institute for Medical Research. The lentiviral cocktail of rtTA, pTight-9-124-BclxL, CTIP2, MYT1L, DLX1, and DLX2 was added to human fibroblasts for 16 h, then cells were washed and fed with fibroblasts media containing 1 μg/mL doxycycline (DOX). […]
Cells were lysed in a 2% SDS buffer. The concentrations of whole-cell lysates were measured using the Pierce BCA protein assay kit (Thermo Scientific, #23227). […]

The test system of assay [6] is HD-MSNs. As to the kind of experiment: Neuronal cell death assay in HD-MSNs (SYTOX, Caspase-3/7, Annexin V). The class given is cell-based, human. The method, then:
as §1
0.1 μM SYTOX gene nucleic acid stain (Invitrogen, S7020) and 1 μl/mL of Hoeschst 33342 (Thermo Scientific, 66249) were added into cell medium. […] Images were taken using Leica DMI 4000B inverted microscope with Leica Application Suite (LAS) Advanced Fluorescence.
Cells were treated with 1× Essen Bioscience IncuCyte® Caspase-3/7 Green Reagent (final concentration 5 µM) and 1× Essen Bioscience IncuCyte® Annexin V Green or Red Reagent on day 22 or 26. […] Images were analyzed for the number of green or red objects per well. For the apoptotic index, the number of green or red objects (i.n., fluorescence cells) divided by phase area (μm2) per well was quantified by the IncuCyte® S3 Live-Cell Analysis System.

In assay [7] the test system is HTT inclusion bodies (IBs) in HD-MSNs. The assay is described as follows: HTT inclusion bodies / mHTT aggregation in HD-MSNs. The class given is cell-based, human. Conditions: HD-MSNs from three patients, 0.5 μM vs DMSO, PID30, FIG. 18K. The method, then:
Adult dermal fibroblasts from symptomatic HD patients (Coriell NINDS and NIGMS Repositories: ND33947, ND30013, GM02173, GM04230, GM04198, GM02147), presymptomatic HD patients (GM04717, GM04861, GM04855, GM04831, GM04857, GM04829), and healthy controls (GM02171) were acquired from the Coriell Institute for Medical Research. The lentiviral cocktail of rtTA, pTight-9-124-BclxL, CTIP2, MYT1L, DLX1, and DLX2 was added to human fibroblasts for 16 h, then cells were washed and fed with fibroblasts media containing 1 μg/mL doxycycline (DOX). Briefly, transduced fibroblasts were maintained in fibroblasts media for two days with doxycycline before selection with Puromycin ([…]) on day 3, then were plated onto poly-ornithine, fibronectin, and laminin-coated coverslips on day 5. Cells were subsequently maintained in NeurobasalA (Gibco) media containing B-27 plus supplement and GlutaMAX supplemented with valproic acid (1 mM), dibutyryl cAMP ([…]), BDNF (10 ng/ml), NT-3 (10 ng/ml), and RA ([…]) until day 13. […]
Reprogramming cells were fixed with 4% paraformaldehyde (Electron Microscopy Sciences, #15710) for 20 min at room temperature (RT), and then permeabilized with 0.2% Triton X-100 for 10 min at RT. […] Images were captured using a Leica SP5X white light laser confocal system with Leica Application Suite (LAS) Advanced Fluorescence 2.7.3.9723.

In another assay the test system is PiZ mouse model of ATD. As to the kind of experiment: PiZ mouse model of ATD, oral gavage. The class given is in vivo. As to the method: The PiZ mouse model has been described previously (Hidvegi 2010 Science 329 (5988): 229-232). For experiments involving drug administration in mice in vivo, doses of 5-50 mg/kg/day for the G2 analog were given for 3 weeks, and then liver histological and biochemical characteristics were assessed exactly as previously described (Hidvegi 2005J Biol Chem 280 (47): 39002-39015). Each experimental group contained 4-6 four- to six-month old male mice randomly chosen from littermates. G2 analogs were delivered by oral gavage. Control mice were littermates given DMSO by gavage. The outcome was determined by evaluating 1) the hepatic ATZ load by immunoblotting with anti-AT, immunostaining with PAS/D; 2) hepatic fibrosis using Sirius Red staining; 3) autophagy by immunoblotting with anti-LC3 and anti-p62, and imaging for GFP+autophagosomes; 4) monitoring blood glucose levels by glucometer and blood insulin levels by ELISA Wide Range Assay (CrystalChem). For immunostaining, liver samples were fixed in 10% Formalin, followed by staining with PAS after diastase and Sirius Red using standard techniques. Quantitative evaluation of immunostaining and histochemical staining was carried out by a member of the team that was blinded to group allocation. Blood glucose and insulin levels were quantified as previously described (Wang 2019 PLOS One 14: e0209748).
For immunoblot analysis of proteins in liver, the liver was snap frozen in liquid nitrogen and stored at −80° C. Liver was homogenized in 50 mM Tris-HCl pH 8.0, 150 mM NaCl, 2 mM KCl, 2 mM MgCl2, 0.5% Triton X-100, 0.5% deoxycholic acid containing 0.1 mM […] and Complete protease inhibitor cocktail from Roche. Total protein concentration was measured by BCA assay (Pierce) and followed by western blotting as described previously.

Assay [8] concerns misfolded ATZ. As to conditions: mammalian cell models of ATD; previously shown; cited from earlier work.
[9] abbreviates: PiZ mouse, marker of autophagic activity.

Where two headings read alike, the source gives them in different places.

On to `COc1ccc(Cl)cc1C(=O)NCCc1ccc(S(=O)(=O)NC(=O)NC2CCCCC2)cc1` [GB, 5-chloro-N-(4-(N-(cyclohexylcarbamoyl)sulfamoyl)phenethyl)-2-methoxybenzamide, reference compound], for which the “accumulation of misfolded, aggregated ATZ” value in assay [1] is reported as “reduced accumulation of misfolded, aggregated ATZ”. The “autophagic degradation of misfolded ATZ” value with misfolded ATZ [2] is reported as “enhances the autophagic degradation of misfolded ATZ”.
Consider `O=c1ccc2c(Cl)cc(Cl)cc2[nH]1` [G2-115, 5,7-dichloroquinolin-2(1H)-one], for which the result in assay [3] was Active. Further, the IC50 in assay [3] (TABLE 1, assay not given) fell in the range of 0.1 to 1 µM. In addition, in assay [4], the “steady-state levels of ATZ” value is reported as “decreased the steady-state levels of ATZ”. Further, in the assay with HD-MSNs [5] (PID26, FIG. 18F), the “p62/SQSTM1 protein levels (immunoblot)” value is reported as “decrease in p62/SQSTM1 protein levels”. Moreover, the “CYTO-ID signal (autophagic vacuoles)” value with HD-MSNs [5] (PID 26, FIG. 18G) is “increase in CYTO-ID signal”. Moreover, the “MSN death by Caspase 3/7 activation and Annexin V signals” value with HD-MSNs [6] (HD.40-MSNs three concentrations PID 30 (FIG. 18I), three patients 0.5 μM (FIG. 18J)) is listed as “significant reduction in MSN death in a dose-dependent manner”. Also, the “MSN death measured by SYTOX” value in the assay with HD-MSNs [6] (HD.44-MSNs, 0.125, 0.25, or 0.5 µM, PID 35, FIG. 18H) is “significant reduction in MSN death in a dose-dependent manner”. The mHTT aggregation entry in assay [7] was “significantly lower levels of mHTT aggregation”.
For `COc1ccc(Cl)cc1C(N)=O` [G2, 5-chloro-2-methoxybenzamide], the outcome in assay [3] was Active. Also, in the assay with PiZ mouse model of ATD (PiZ mouse), the “hepatic ATZ load” value is given as “significant reduction of hepatic ATZ load” and the insulin secretion entry is listed as “without affecting insulin secretion”. For the same compound, in the assay with PiZ mouse model of ATD (setting [9]), the “LC3-II conversion in the liver” value is “increased LC3-II conversion” and the “p62 levels in the liver” value was “decreased p62 levels”. Moreover, the “hepatic / liver fibrosis (Sirius Red staining)” value with PiZ mouse model of ATD (PiZ mouse, G2-19: 3 weeks of treatment vs placebo) is listed as “significant reduction”. Moreover, the liver damage entry with PiZ mouse model of ATD (mouse model of ATD) is “reverse liver damage”. Moreover, the “autophagic degradation of misfolded ATZ” value in the assay on misfolded ATZ [8] is “promoted autophagic degradation”.

Values taken from patent publication US12496297B1, “Compositions of autophagy modulating agents and uses thereof” (Washington University, priority 2020, dated 2025).
